For 12 compounds, EC50 and EC90 results are on record in ChEMBL document CHEMBL5441381, “ASAP - In vitro antiviral effect” (2024).

Where “and” joins values, the source holds several entries; their conditions need not be identical. Identical values can stand only once.

The subject of assay [1] is Middle East respiratory syndrome-related coronavirus. As to the kind of experiment: microbe, parasite or virus in culture. It counts as functional, organism-based, Chlorocebus sabaeus, VeroE6/TMPRSS2.
Assay [2] relates to SARS-CoV-2. As to the kind of experiment: (§1) Functional immunofluorescence assay to measure dose dependent changes in antiviral-drug inhibitory efficacy against hCoV-19/USA-WA1/2020 in HeLa-ACE2 cells which are seeded prior to drug treatment, then infected with hCoV-19/USA-WA1/2020. Cells are fixed with 10 % formaldehyde, washed with PBS, permeabilized with permeabilization buffer, then washed with wash buffer. The cells are incubated with nucleoprotein primary antibody IC7C7. Following primary staining, cells are washed with wash buffer and incubated in a solution of with Alexa fluor 488 and DAPI. Infected and uninfected cells are visualized and analyzed by Gen5 software. The assay has been performed by Icahn School of Medicine at Mount Sinai. It counts as organism-based, Homo sapiens.

The test system of assay [3] is SARS-CoV-2. Described as §1, with “iPSC-Pneumocyte” for “HeLa-ACE2”, “to” for “to drug”. It counts as organism-based, Homo sapiens. To be noted: Severe acute respiratory syndrome coronavirus 2, Pneumocyte; for EC90: Baseline response 0 %, Maximum response 100 %.
Assay [4] has as its system Middle East respiratory syndrome-related coronavirus. As to the kind of experiment: microbe, parasite or virus in culture. It counts as functional, organism-based, Chlorocebus sabaeus. The note with it: Vero 76.
Where [5] appears, read: Middle East respiratory syndrome-related coronavirus, VeroE6/TMPRSS2.
[6] abbreviates: Severe acute respiratory syndrome coronavirus 2, HeLa-ACE2.

As to `COc1ccc([C@H](Cc2nnn[nH]2)NC(=O)c2ncnc3[nH]ccc23)cc1`, the EC50 in assay [1] (setting [5]) is greater than 5 µM; in the assay on SARS-CoV-2 [2] (setting [6]), greater than 20 µM. Further, the EC90 in assay [1] (setting [5]) was greater than 5 µM; in the assay with SARS-CoV-2 [2] (Severe acute respiratory syndrome coronavirus 2, HeLa-ACE2, Baseline response 0 %, Hill slope -0.286, Maximum measured 116.588 %, Maximum response 100 %, Minimum measured 75.952 %, R squared 0.436), greater than 20 µM; in the assay on SARS-CoV-2 [2] (Severe acute respiratory syndrome coronavirus 2, HeLa-ACE2, Baseline response 0 %, Hill slope -1.346, Maximum measured 102.013 %, Maximum response 100 %, Minimum measured 88.847 %, R squared 0.139) it was greater than 20 µM.

In the case of `C[C@H](C(=O)O)[C@@H](NC(=O)c1ncnc2[nH]ccc12)c1ccc(Br)cc1`, the EC50 in assay [1] (setting [5]) is greater than 5 µM; with SARS-CoV-2 [2] (setting [6]) it was greater than 20 µM. The EC90 in assay [1] (setting [5]) is greater than 5 µM; in the assay with SARS-CoV-2 [2] (Severe acute respiratory syndrome coronavirus 2, HeLa-ACE2, Baseline response 0 %, Hill slope -0.083, Maximum measured 104.611 %, Maximum response 100 %, Minimum measured 71.809 %, R squared 0.037) it was greater than 20 µM; in the assay with SARS-CoV-2 [2] (Severe acute respiratory syndrome coronavirus 2, HeLa-ACE2, Maximum measured 2742.07 %, Minimum measured 91.919 %), greater than 20 µM.

For the compound `Cn1ncc(-c2cc3c(N[C@@H](c4ccc5c(n4)OCCO5)C(C)(C)C)ncnc3[nH]2)c1C#N`, the values for the EC50 (in assay [1] (setting [5]); in the assay on SARS-CoV-2 [2] (setting [6]); in the assay on SARS-CoV-2 [2] (hela-ace2)) were greater than 5 µM, 1.49 µM and 1.6 µM, respectively. For the same compound, the EC90 in assay [1] (setting [5]) was greater than 5 µM; with SARS-CoV-2 [2] (Severe acute respiratory syndrome coronavirus 2, HeLa-ACE2, Baseline response 0 %, Hill slope -0.781, Maximum measured 101.751 %, Maximum response 100 %, Minimum measured 4.671 %, R squared 0.23), greater than 20 µM; in the assay with SARS-CoV-2 [2] (Severe acute respiratory syndrome coronavirus 2, HeLa-ACE2, Baseline response 0 %, Hill slope -0.984, Maximum measured 108.122 %, Maximum response 100 %, Minimum measured 8.006 %, R squared 0.973), greater than 10 µM.

`CNC(=O)Cn1cc(-c2cc3c(N[C@@H](c4ccc5c(c4)S(=O)(=O)CCC5)C(C)C)ncnc3[nH]2)cn1`: the figures for the EC50 (in assay [1] (setting [5]); with SARS-CoV-2 [2] (setting [6]); with SARS-CoV-2 [3]) were greater than 5 µM, greater than 20 µM and greater than 50 µM, respectively. The EC90 is greater than 5 µM in assay [1] (setting [5]); greater than 20 µM in the assay with SARS-CoV-2 [2] (Severe acute respiratory syndrome coronavirus 2, HeLa-ACE2, Baseline response 0 %, Hill slope 1.327, Maximum measured 117.537 %, Maximum response 100 %, Minimum measured 90.244 %, R squared 0.066); greater than 20 µM in the assay with SARS-CoV-2 [2] (Severe acute respiratory syndrome coronavirus 2, HeLa-ACE2, Maximum measured 116.513 %, Minimum measured 98.017 %); greater than 50 µM with SARS-CoV-2 [3] (Hill slope -7.964, Maximum measured 130.776 %, Minimum measured 73.915 %, R squared 0.151).

Regarding `CNCc1cc(-c2cc3c(N[C@@H](c4ccc5c(c4)S(=O)(=O)CCC5)C(C)C)ncnc3[nH]2)co1`, the EC50 in assay [1] (setting [5]) is greater than 5 µM; in the assay on SARS-CoV-2 [2] (setting [6]) it was greater than 20 µM; in the assay with SARS-CoV-2 [2] (hela-ace2), 11.6 µM; with SARS-CoV-2 [3], 3.34 µM. Besides, the EC90 in assay [1] (setting [5]) was greater than 5 µM; in the assay with SARS-CoV-2 [2] (Severe acute respiratory syndrome coronavirus 2, HeLa-ACE2, Baseline response 0 %, Hill slope -1.471, Maximum measured 134.366 %, Maximum response 100 %, Minimum measured 28.123 %, R squared 0.287), greater than 20 µM; with SARS-CoV-2 [2] (Severe acute respiratory syndrome coronavirus 2, HeLa-ACE2, Baseline response 0 %, Hill slope -3.107, Maximum measured 113.346 %, Maximum response 100 %, Minimum measured 56.361 %, R squared 0.692) it was greater than 20 µM; in the assay on SARS-CoV-2 [3] (Hill slope -0.579, Maximum measured 92.989 %, Minimum measured 2.106 %, R squared 0.758) it was greater than 50 µM.

With `CC(C)[C@H](Nc1ncnc2[nH]c(-c3cnn(C)c3C#N)cc12)c1ccc2c(n1)OCCO2`, the EC50 was greater than 5 µM in assay [1] (setting [5]), 0.819 µM in the assay on SARS-CoV-2 [2] (setting [6]) and 0.508 µM with SARS-CoV-2 [2] (hela-ace2). Also, the EC90 in assay [1] (setting [5]) is greater than 5 µM; in the assay with SARS-CoV-2 [2] (Baseline response 0 %, EC90 CI (lower) 0.11 uM, EC90 CI (upper) 0.158 uM, Hill slope -1.629, Maximum measured 105.242 %, Maximum response 100 %, Minimum measured 1.508 %, R squared 0.979), 1.96 µM; in the assay with SARS-CoV-2 [2] (Severe acute respiratory syndrome coronavirus 2, HeLa-ACE2, Baseline response 0 %, EC90 CI (lower) 0.09 uM, EC90 CI (upper) 0.442 uM, Hill slope -1.557, Maximum measured 125.33 %, Maximum response 100 %, Minimum measured 4.425 %, R squared 0.913) it was 3.36 µM.

Regarding `CNC(=O)c1c[nH]c2ncnc(N[C@H](c3ccc4c(c3)S(=O)(=O)CCC4)C(C)C)c12`, the figures for the EC50 (in assay [4]; in the assay on SARS-CoV-2 [2] (setting [6]); in the assay on SARS-CoV-2 [3]) were greater than 32 µM, greater than 20 µM and 6.74 µM, respectively. Besides, the EC90 in the assay on SARS-CoV-2 [2] (Severe acute respiratory syndrome coronavirus 2, HeLa-ACE2, Baseline response 0 %, Hill slope -10.584, Maximum measured 109.331 %, Maximum response 100 %, Minimum measured 66.391 %, R squared 0.561) is greater than 20 µM; in the assay with SARS-CoV-2 [3] (Hill slope -0.412, Maximum measured 88.736 %, Minimum measured 31.934 %, R squared 0.862) it was greater than 50 µM.

Take `CC(C)[C@H](Nc1ncnc2[nH]ccc12)c1ccc2c(c1)S(=O)(=O)CCC2`: the EC90 in assay [1] is greater than 20 µM; with SARS-CoV-2 [2] (Severe acute respiratory syndrome coronavirus 2, HeLa-ACE2, Maximum measured 129.029 %, Minimum measured 103.942 %), greater than 20 µM; in the assay on SARS-CoV-2 [2] (Severe acute respiratory syndrome coronavirus 2, HeLa-ACE2, Maximum measured 158.705 %, Minimum measured 84.767 %), greater than 20 µM. For the same compound, the EC50 in assay [1] (veroe6/tmprss2) was 2.42 µM and > 20 µM and > 5 µM; in the assay with SARS-CoV-2 [2] (setting [6]), greater than 20 µM.

Regarding `CC(C)[C@@H](Nc1ncnc2[nH]c(C(=O)N[C@@H]3CCN(C)C3)cc12)c1ccc2c(c1)S(=O)(=O)CCC2`, the EC50 in assay [1] (setting [5]) is greater than 5 µM; with SARS-CoV-2 [2] (setting [6]), greater than 20 µM; with SARS-CoV-2 [3] it was greater than 50 µM. Also, the EC90 in assay [1] (setting [5]) is greater than 5 µM; with SARS-CoV-2 [2] (Severe acute respiratory syndrome coronavirus 2, HeLa-ACE2, Baseline response 0 %, Hill slope 0.166, Maximum measured 108.327 %, Maximum response 100 %, Minimum measured 87.557 %, R squared 0.011), greater than 20 µM; with SARS-CoV-2 [2] (Severe acute respiratory syndrome coronavirus 2, HeLa-ACE2, Baseline response 0 %, Hill slope -0.788, Maximum measured 109.068 %, Maximum response 100 %, Minimum measured 93.8 %, R squared 0.114), greater than 20 µM; with SARS-CoV-2 [3] (Hill slope -0.484, Maximum measured 101.646 %, Minimum measured 52.305 %, R squared 0.601), greater than 50 µM.

Turning to `CC(C)[C@@H](Nc1ncnc2[nH]c(-c3cnn(C)c3C#N)cc12)c1ccc2c(n1)OCCO2`, the figures for the EC50 (in assay [1] (setting [5]); with SARS-CoV-2 [3]) were greater than 5 µM and 12.7 µM, respectively. The EC90 in assay [1] (setting [5]) is greater than 5 µM; in the assay with SARS-CoV-2 [2] (Baseline response 0 %, EC90 CI (lower) 0.252 uM, EC90 CI (upper) 0.378 uM, Hill slope -1.375, Maximum measured 105.062 %, Maximum response 100 %, Minimum measured 1.471 %, R squared 0.975), 7.55 µM; in the assay with SARS-CoV-2 [2] (Baseline response 0 %, EC90 CI (lower) 1.033 uM, EC90 CI (upper) 2.755 uM, Hill slope -2.587, Maximum measured 119.294 %, Maximum response 100 %, Minimum measured 1.653 %, R squared 0.93), 9.22 µM; in the assay with SARS-CoV-2 [2] (Severe acute respiratory syndrome coronavirus 2, HeLa-ACE2, Baseline response 0 %, Hill slope -24.486, Maximum measured 143.7 %, Maximum response 100 %, Minimum measured 4.604 %, R squared 0.738), 6.44 µM; in the assay on SARS-CoV-2 [2] (Severe acute respiratory syndrome coronavirus 2, HeLa-ACE2, Baseline response 0 %, EC90 CI (lower) 1.926 uM, EC90 CI (upper) 3.068 uM, Hill slope -3.008, Maximum measured 101.777 %, Maximum response 100 %, Minimum measured 4.949 %, R squared 0.988), 10.5 µM; in the assay with SARS-CoV-2 [3] (EC90 CI (lower) 0 uM, EC90 CI (upper) 0 uM, Hill slope -10.753, Maximum measured 116.418 %, Minimum measured 5.314 %, R squared 0.553) it was 15.6 µM.

With `Cc1nn(C)cc1-c1cc2c(N[C@H](c3ccc4c(c3)S(=O)(=O)CCC4)C(C)C)ncnc2[nH]1`, the figures for the EC50 (in assay [1] (setting [5]); in the assay with SARS-CoV-2 [2] (setting [6])) were greater than 5 µM and greater than 20 µM, respectively. The EC90 in assay [1] (setting [5]) was greater than 5 µM; in the assay on SARS-CoV-2 [2] (Severe acute respiratory syndrome coronavirus 2, HeLa-ACE2, Baseline response 0 %, Hill slope -2.191, Maximum measured 111.189 %, Maximum response 100 %, Minimum measured 56.402 %, R squared 0.73), greater than 20 µM; with SARS-CoV-2 [2] (Severe acute respiratory syndrome coronavirus 2, HeLa-ACE2, Baseline response 0 %, Hill slope -5.449, Maximum measured 120.747 %, Maximum response 100 %, Minimum measured 82.491 %, R squared 0.099), greater than 20 µM.

For `CC(C)[C@@H](Nc1ncnc2[nH]c(-c3cnn(C)c3C#N)cc12)c1ccc2c(c1)S(=O)(=O)CCC2`, the EC50 with SARS-CoV-2 [2] (setting [6]) stood at 3.51 µM; in the assay with SARS-CoV-2 [3] it was 0.411 µM. Also, the EC90 in the assay with SARS-CoV-2 [2] (Severe acute respiratory syndrome coronavirus 2, HeLa-ACE2, Baseline response 0 %, EC90 CI (lower) 0.517 uM, EC90 CI (upper) 1.693 uM, Hill slope -1.661, Maximum measured 114.163 %, Maximum response 100 %, Minimum measured 4.545 %, R squared 0.935) was determined as 13.2 µM; in the assay with SARS-CoV-2 [3] (EC90 CI (lower) 0.002 uM, EC90 CI (upper) 0.075 uM, Hill slope -0.637, Maximum measured 75.192 %, Minimum measured 0.111 %, R squared 0.781), 13 µM.

Usually EC50 stands for the concentration giving half of the maximal effect. The term EC90 denotes the concentration needed for an effect of 90%.
